{
  "source": "patent US20160200769A1",
  "about": "“Compound, Transitmycin, Effective Against Bacterial and Viral Pathogens” (INDIAN COUNCIL OF MEDICAL RESEARCH, priority 2013, published 2016)",
  "key": {"[1]": {"test_system": "M. tuberculosis SHRE sensitive", "assay": "microbe, parasite or virus in culture", "format": "cell-based", "conditions": "Mycobacterium tuberculosis"}, "[2]": {"test_system": "dormant tubercle bacilli grown under hypoxic condition", "assay": "Activity against latent TB bacilli, Wayne's dormant model", "format": "cell-based, M. tuberculosis"}, "[3]": {"test_system": "biofilm of M. tuberculosis isolates (SHRE sensitive, MDR and XDR)", "assay": "Inhibitory activity against MTB biofilm", "format": "cell-based"}, "[4]": {"test_system": "Indie-Cl (Clade C virus)", "assay": "Anti-HIV activity of purified compound, p24 antigen in infected PBMC", "format": "cell-based, HIV-1", "conditions": "day 7, 0 μg/ml control 406", "description": "(§1) Virus production by transfection of 293T cells: 293T cells are plated at a concentration of 1×10^6 cells/ml in a 100 mm culture dish and grown at 37° C. in a CO2 incubator for 24 hours. Cells are transfected with 20 μg of HIV IIIB plasmid DNA using the mammalian cell transfection kit (Millipore). The culture supernatant is collected at 48 hours post transfection, clarified by centrifugation and stored in liquid nitrogen.\n(§2) Titration of virus stock: Seven serial four-fold dilutions of virus stock, ranging from 1:[…] are titrated in triplicate in a 96-well flat bottomed tissue culture plate containing 200,000 cells/well (PBMC stimulated with PHA for 72 hours). After 7 days of culture at 37° C. in a CO2 incubator, the titration assay is terminated and the culture supernatants are tested for HIV-1 p24 antigen. The TCID50 (tissue culture infection dose50) is calculated employing the Spearman-Kaber method.\n(§3) Testing for anti-HIV activity of compound: HIV IIIB is used as a representative Glade B virus and Indie-Cl as a representative Glade C virus. Healthy donor PBMC (Peripheral blood mononuclear cells) activated through PHA (Phyto heme agglutinin) stimulation for 72 hours are incubated with 100TCID50 of the virus per 1×10^6 cells for 2 hours at 37° C. The cells are washed twice to get rid of the unadsorbed virus and plated at a concentration of 200,000 cells/well in a 96-well tissue culture plate. Varying concentrations of the compound are added to triplicate wells (concentrations tested were 0.001 μg/ml, 001 μg/ml, 0.1 μg/ml, 1.0 μg/ml, 5.0 μg/ml and 10.0 tg/ml). Control cultures are set up without addition of the compound. Cultures are maintained for 7 days at 37° C. in a CO2 incubator. On day 7, culture supernatants are tested for HIV-1 p24 antigen.\n(§4) Measurement of HIV-1 p24 antigen: HIV-1 p24 antigen production is measured as an indirect measure of viral replication in the culture supernatants using the Alliance HIV-1 p24 ELISA kit (Perkin Elmer, USA).\n(§5) Virus growth is .determined, by measuring p24 concentrations in culture supernatants."}, "[5]": {"test_system": "HIV IIIB (Clade B virus)", "assay": "Anti-HIV activity of purified compound, p24 antigen in infected PBMC", "format": "cell-based, HIV-1", "conditions": "day 7, 0 μg/ml control 2394", "description": "as §1, §2, §3, §4, §5"}, "[6]": {"assay": "Solubility of purified compound in solvents", "format": "physicochemical", "description": "Solubility of purified compound is tested by adding the purified compound in 100 jxl of solvents such as methanol, chloroform, dichloromethane, diethyl ether, ethyl acetate and n-hexane. Melting point of the purified compound is tested using Tempo instrument and is determined as 240-242° C."}, "[7]": {"test_system": "M. tuberculosis (XDR)", "assay": "microbe, parasite or virus in culture", "format": "cell-based", "conditions": "Mycobacterium tuberculosis"}, "[8]": {"test_system": "Staphylococcus aureus (NCIM5021)", "assay": "MIC by micro dilution broth assay with resazurin", "format": "cell-based", "conditions": "18 hours at 37° C.", "description": "(§6) The minimum inhibitory concentration (MIC) of the compound of formula (I) is determined for other bacterial pathogens Staphylococcus aureus (NCIM5021), Pseudomonas aeruginosa (NClM5029) and Escherichia coli (NCIM2931). The minimum inhibitory concentration (MIC) is determined by micro dilution broth assay method with modifications using resazurin as an indicator as follows:\n(§7) (i) dissolving the compound of formula (I) in absolute ethanol to a concentration of 10 mg/ml;\n(§8) (ii) Serially diluting the compound and adding to successive wells in a 96 well microtiter plate and incubating with the bacterial pathogens for 18 hours at 37° C.;\n(§9) (iii) maintaining the growth and sterility controls during the experiment;\n(§10) (iv) adding 10 μl of 0.01% resazurin solution and incubating for 2 hours;\n(§11) (v) visually assessing the color change.\n(§12) Blue colour indicates inhibition of growth, indicating MIC."}, "[9]": {"test_system": "Escherichia coli (NCIM2931)", "assay": "MIC by micro dilution broth assay with resazurin", "format": "cell-based", "conditions": "18 hours at 37° C.", "description": "as §6, §7, §8, §9, §10, §11, §12"}, "[10]": {"test_system": "Pseudomonas aeruginosa (NCIM5029)", "assay": "MIC by micro dilution broth assay with resazurin", "format": "cell-based", "conditions": "18 hours at 37° C.", "description": "as §6, §7, §8, §9, §10, §11, §12"}, "[11]": {"test_system": "M. tuberculosis H37Rv", "assay": "microbe, parasite or virus in culture", "format": "cell-based", "conditions": "Mycobacterium tuberculosis"}, "[12]": {"test_system": "3T3 cells", "assay": "Cytotoxicity, MTT assay", "format": "cell-based", "set-up": "unit of the concentration uncertain", "conditions": "for Average % Viability: 3T3 cells, MTT", "description": "Cytotoxicity of the compound is measured by adopting MTT assay (Mosmann, 1983) as follows:\n(i) preparing, the sample by inoculating 3T3 cells in 5×10^4 concentrations in each well of 96 well microtiter plates with in Dulbecco's modified Eagles medium (DMEM) containing 10% FBS, 100 U/ml Penicillin 100 µg/ml Streptomycin;\n(ii) incubating for a period of 2 days at a temperature of 37° C. in 5% CO2 atmosphere (Astec Japan); […]\n(iv) Discarding the growth medium in the plates and washing the wells with phosphate buffer saline (PBS);\n(v) Adding MTT in growth medium at a final concentration of 0.5 mg/ml and incubating for 4 hours;\n(vi) solublizing the insoluble formazan crystals' with 0.04N HCl in isopropylalcohol and measuring the absorption on a Spectramax Plus384 spectrophotometer (Molecular Devices, Calif., USA) at 570 nm.\nFor each of the samples evaluated, the test is performed in triplicate. The control cells are treated with PBS. Overnight experiment is done with DMSO alone as a control."}},
  "note": "*1 amine or outer side, *2 acyl side, *3 side chain or, on linkers, in order; H or OH if unused. Where a SMILES comes first, the peptide text is derived from it. Bridges are numbered along the chain shown (N, C = ends). Roman numbers before positions name the chains, in order. [ ]: non-standard residue; d: D form. Actinocin(1to9) = Cc1c2oc3c(C)ccc(C(=O)[*:2])c3nc-2c(C(=O)[*:1])c(N)c1=O; Pro(4-oxo) = O=C1CN[C@H](C(=O)O)C1; NMeV = CN[C@H](C(=O)O)C(C)C; Sar = CNCC(=O)O",
  "data": [
    {"compound": "Cc1c2oc3c(C)ccc(C(=O)N[C@@H]4C(=O)N[C@@H](C(C)C)C(=O)N5CCC[C@H]5C(=O)N(C)CC(=O)N(C)[C@@H](C(C)C)C(=O)O[C@@H]4C)c3nc-2c(C(=O)N[C@@H]2C(=O)N[C@@H](C(C)C)C(=O)N3CC(=O)C[C@H]3C(=O)N(C)CC(=O)N(C)[C@@H](C(C)C)C(=O)O[C@@H]2C)c(N)c1=O", "note": "[compound of formula (I), Transitmycin] (I: TV[Pro(4-oxo)][Sar][NMeV] / II: TVP[Sar][NMeV]; ester I:1-I:C, II:1-II:C; linker I:N-II:N via Actinocin(1to9))", "values": [
      {"measurement": "MIC", "setting": "[1]", "value": 1.5, "unit": "µg/mL"},
      {"measurement": "CFU in M. tuberculosis cultures compared with CFU without the compound", "setting": "[2]", "value": "Reduction in the CFU"},
      {"measurement": "Biofilm formation", "setting": "[3]; 100 μg/ml, 37° C., 5 weeks", "value": "no, biofilm formation"},
      {"measurement": "Viable colonies (CFU) after treatment of wells", "setting": "[3]; at the end of 2 months, […]", "value": "no viable colonies"},
      {"measurement": "P24 antigen", "setting": "[4]; compound 0.001 μg/ml", "value": 390, "unit": "pg/mL"},
      {"measurement": "P24 antigen", "setting": "[4]; compound 0.01 μg/ml", "value": 310, "unit": "pg/mL"},
      {"measurement": "P24 antigen", "setting": "[4]; compound 0.1 μg/ml", "value": 344, "unit": "pg/mL"},
      {"measurement": "P24 antigen", "setting": "[4]; compound 1 μg/ml", "value": 302, "unit": "pg/mL"},
      {"measurement": "P24 antigen", "setting": "[4]; compound 5 μg/ml", "value": 295, "unit": "pg/mL"},
      {"measurement": "P24 antigen", "setting": "[4]; compound 10 μg/ml", "value": 296, "unit": "pg/mL"},
      {"measurement": "P24 antigen", "setting": "[5]; compound 0.001 μg/ml", "value": 1603, "unit": "pg/mL"},
      {"measurement": "P24 antigen", "setting": "[5]; compound 0.01 μg/ml", "value": 337, "unit": "pg/mL"},
      {"measurement": "P24 antigen", "setting": "[5]; compound 0.1 μg/ml", "value": 163, "unit": "pg/mL"},
      {"measurement": "P24 antigen", "setting": "[5]; compound 1 μg/ml", "value": 144, "unit": "pg/mL"},
      {"measurement": "P24 antigen", "setting": "[5]; compound 5 μg/ml", "value": 147, "unit": "pg/mL"},
      {"measurement": "P24 antigen", "setting": "[5]; compound 10 μg/ml", "value": 163, "unit": "pg/mL"},
      {"measurement": "Solubility", "setting": "[6]; Chloroform, Dichloromethane, Ethyl acetate, Methanol, Ethanol, Acetonitrile, DMSO, water", "value": "Souble"},
      {"measurement": "Solubility", "setting": "[6]; Hexane", "value": "Insoluble"},
      {"measurement": "MIC", "setting": "[7]", "value": 6.25, "unit": "µg/mL"},
      {"measurement": "MIC", "setting": "[8]", "value": 139, "unit": "µg/mL"},
      {"measurement": "MIC", "setting": "[9]", "value": 17.4, "unit": "µg/mL"},
      {"measurement": "MIC", "setting": "[10]", "value": 17.4, "unit": "µg/mL"},
      {"measurement": "MIC", "setting": "[11]", "value": "< 1", "unit": "µg/mL"},
      {"measurement": "Average % Viability", "setting": "[12]; 10 (unit uncertain)", "value": 93.00, "unit": "%"},
      {"measurement": "Average % Viability", "setting": "[12]; 25 (unit uncertain)", "value": 86.01, "unit": "%"},
      {"measurement": "Average % Viability", "setting": "[12]; 50 (unit uncertain)", "value": 73.88, "unit": "%"},
      {"measurement": "Average % Viability", "setting": "[12]; 100 (unit uncertain)", "value": 66.13, "unit": "%"},
      {"measurement": "Cytotoxic activity", "setting": "[12]; even at 100 (unit uncertain) concentration", "value": "very poor cytotoxic activity"}
    ]},
    {"compound": "NNC(=O)c1ccncc1", "note": "[INH, reference compound]", "values": [
      {"measurement": "Effect of standard drug against latent tubercle bacilli", "setting": "[2]; negative control", "value": "resistant"}
    ]}
  ]
}
